This is an account of results in ChEMBL document CHEMBL1149506, “Synthesis and in vitro biological evaluation of aryl boronic acids as potential inhibitors of factor XIa” (Bioorg Med Chem Lett, 2006).

For one assay, the target named is Coagulation factor XI (Homo sapiens, UniProt P03951). In words: Inhibition of f11a.
For another assay, the target named is Coagulation factor X (Homo sapiens, UniProt P00742). In words: Inhibition of f10a.
The next assay deals with Prothrombin (Homo sapiens, UniProt P00734). In words: Inhibition of thrombin.
A further assay concerns the target Trypsin (Homo sapiens, UniProt P07477+P07478+P35030). In words: Inhibition of trypsin. The format is protein assay.
The species named for assay [1] is Homo sapiens. In words: Selectivity for f11a over f10a.
The species entered for assay [2] is Homo sapiens. In words: Selectivity for f11a over trypsin.

SMILES strings stand for the structures. Structures can show the parent of a compound that is named as a salt.

Chain of Coagulation factor XI (P03951 19-387 limits assumed): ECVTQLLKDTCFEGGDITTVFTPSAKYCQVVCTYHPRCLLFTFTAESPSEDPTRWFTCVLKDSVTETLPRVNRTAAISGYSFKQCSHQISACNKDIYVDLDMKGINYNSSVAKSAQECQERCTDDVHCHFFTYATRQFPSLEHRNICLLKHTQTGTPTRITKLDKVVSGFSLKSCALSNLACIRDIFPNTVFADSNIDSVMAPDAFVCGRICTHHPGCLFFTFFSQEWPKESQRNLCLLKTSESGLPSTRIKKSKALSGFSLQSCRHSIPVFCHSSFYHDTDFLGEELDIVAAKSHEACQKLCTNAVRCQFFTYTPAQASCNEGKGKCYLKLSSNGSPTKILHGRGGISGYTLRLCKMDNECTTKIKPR
Chain of Coagulation factor XI (P03951 388-625 limits assumed): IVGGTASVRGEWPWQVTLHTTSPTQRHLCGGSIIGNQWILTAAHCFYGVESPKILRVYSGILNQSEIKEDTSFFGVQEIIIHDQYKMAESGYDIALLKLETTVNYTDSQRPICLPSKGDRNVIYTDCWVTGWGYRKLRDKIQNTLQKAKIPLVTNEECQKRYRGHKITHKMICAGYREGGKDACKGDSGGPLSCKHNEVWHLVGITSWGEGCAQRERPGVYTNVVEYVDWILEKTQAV
Chain of Coagulation factor X (P00742 41-179 limits assumed): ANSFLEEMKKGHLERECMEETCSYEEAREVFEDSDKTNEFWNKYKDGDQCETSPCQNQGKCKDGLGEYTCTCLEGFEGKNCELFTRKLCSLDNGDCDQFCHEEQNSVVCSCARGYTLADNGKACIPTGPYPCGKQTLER
Chain of Coagulation factor X (P00742 235-488 limits assumed): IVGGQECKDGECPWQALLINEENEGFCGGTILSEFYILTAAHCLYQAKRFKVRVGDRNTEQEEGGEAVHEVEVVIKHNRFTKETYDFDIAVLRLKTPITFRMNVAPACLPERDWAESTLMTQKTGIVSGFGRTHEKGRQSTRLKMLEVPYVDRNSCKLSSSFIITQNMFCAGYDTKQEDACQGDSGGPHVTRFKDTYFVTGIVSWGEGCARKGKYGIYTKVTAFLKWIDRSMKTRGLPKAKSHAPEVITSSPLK

As usually defined, the IC50 is the midpoint of a concentration-inhibition curve. A high value points to a need for much substance. As for `CC1(C)OB(c2ccc(CCN=C(N)N)cc2)OC1(C)C.O=C(O)C(F)(F)F`, the IC50 came out at 7.3 µM on Coagulation factor XI, 175 µM against Coagulation factor X, 30.8 µM at Prothrombin and 20.3 µM on Trypsin. For the same compound, the Selectivity ratio in the assay filed under Homo sapiens [1] was determined as 25; in the assay listed under Homo sapiens [2], 3.

Regarding `CC1(C)OB(c2ccc(C(NC(=N)N)OC(=O)c3cccnc3)cc2)OC1(C)C.O=C(O)C(F)(F)F` (stereo not given), the IC50 at Coagulation factor XI is 1.4 µM; on Coagulation factor X, 43.6 µM; at Prothrombin, 12.3 µM; on Trypsin, greater than 200 µM. The Selectivity ratio in the assay filed under Homo sapiens [1] is 30; in the assay filed under Homo sapiens [2], 200.

As to `CC1(C)OB(c2ccc(NC(=N)N)cc2)OC1(C)C.O=C(O)C(F)(F)F`, the IC50 at Coagulation factor XI was 5.9 µM; against Coagulation factor X it was 129 µM; at Prothrombin, 5.5 µM; on Trypsin, 2.3 µM.

On to `N=C(N)c1ccccc1` [BENZAMIDINE HYDROCHLORIDE], for which, at Coagulation factor XI, it took 120 µM to reach half-maximal inhibition (IC50).

For the compound `CC1(C)OB(c2ccc(CN=C(N)N)cc2)OC1(C)C`, the half-maximal inhibitory concentration (IC50) is 24.7 µM on Coagulation factor XI, greater than 200 µM against Coagulation factor X, 129 µM on Prothrombin and greater than 200 µM on Trypsin. Also, the Selectivity ratio in the assay listed under Homo sapiens [1] and in the assay listed under Homo sapiens [2] was 10 throughout.

`N=C(N)NCc1ccc(B(O)O)cc1.O=C(O)C(F)(F)F`: the half-maximal inhibitory concentration (IC50) against Coagulation factor XI is 22 µM; against Coagulation factor X, greater than 200 µM; against Prothrombin, 146 µM; on Trypsin, greater than 200 µM. Besides, the Selectivity ratio in the assay filed under Homo sapiens [1] and in the assay filed under Homo sapiens [2] was 10 in each case.

On Coagulation factor XI, `NCc1ccc(B(O)O)cc1` returned an IC50 of 77.3 µM.
